Measured values reported in patent publication US5567704A, “R-enatiomerically pure hydroxylated xanthine compounds to treat baldness” (priority 1995, dated 1996).

Columns and labels:
[1] = test system: lysophosphatidic acid acyl transferase (LPAAT); assay: in vitro inhibition of LPAAT in 3T3 Ras-transformed fibroblasts stimulated with IL-1β; assay type: cell-based; settings: 3T3 Ras-transformed fibroblasts, IL-1β, FIG. 17
Experimental: FIG. 17 illustrates a comparison of CT1501R, its S isomer CT1501S, and PTX on in vitro inhibition of lysophosphatidic acid acyl transferase (LPAAT), an enzyme involved in second messenger signaling. […] LPAAT activity was determined in 3T3 Ras-transformed fibroblasts stimulated with IL-1β.
One in vitro assay measures inhibition of the relevant enzymes lysophosphatidic acid acyltransferase (LPAAT) and phosphatidic acid phosphoryl hydrolase (PAPH). The assay involves incubating of target cells with a primary stimulus (e.g., a variety of cytokines, growth factors, oncogene products, putative therapeutic agents, irradiation, viral infection, toxins, bacterial infection and the products thereof, and any stimulus which, if not counteracted, has a deleterious effect on the target cell) in the presence or absence of an inventive compound at varying dosage levels. Target cells include, for example, subcellular entities, such as, microsomes derived from mesenchymal and/or ectodermal cells, particularly microsomes from marrow stromal cells or human or rat mesangial cells; microsomes or synaptosomes derived from brain; plasma membrane-enriched microsomes, plasma membranes derived as described in Bursten et at. (J. Biol. Chem. 226:20732-20743, 1991 ), or detergent-solubilized microsomes; synaptosomes, and membranes or other cell preparations solubilized using, for example, NP-40, Miranal, SDS or other neutral detergents; and detergent-solubilized, recombinant, or further purified preparations of cell proteins, including the proteins LPAAT and/or PAPH. After incubation for short periods of time, cell lipids are extracted and assayed by […] according to standard procedures. Briefly, lipids are extracted using, for example, chloroform:methanol 2:1 (v/v), and the extracts are then subjected to HPLC as described in Bursten and Harris, Biochemistry 30:6195-6203, 1991. A Rainin® mu-Porasil column is used with a 3:4 hexane:propanol organic carrier and a 1-10% water gradient during the first 10 minutes of separation. Detection of the peaks in the elution pattern is by absorption in the range of ultraviolet which detects isolated double bonds. The relevant peaks of unsaturated PA and DAG are shown in the elution pattern. It is important to note that the assay method permits discrimination between various forms of PA and DAG so that those relevant to the pathway affected by the (R) or (S) compounds of the invention can be measured directly. Confirmation of the nature of the acyl substituents of these components is accomplished using fast-atom bombardment mass spectroscopy. Thus, the relevant unsaturated (non-arachidonic) PA and DAG subspecies may be detected. The time periods employed are 5-60 seconds after stimulation with the primary stimulus, such as a cytokine. This technique permits assessment of the levels of various lipid components as a function of time.

[2] = test system: smooth muscle cell; assay: smooth muscle proliferation stimulated by PDGF and IL-1; assay type: cell-based; settings: PDGF and IL-1; drug added two hours prior, FIG. 4
From the text: CT1501R and PTX were separately added to the cells two hours prior to activation with PDGF and IL-1.

[3] = test system: stromelysin/PUMP-1; assay: PUMP-1 activity induced by IL-1; assay type: cell-based; settings: induced by 100 U/ml of IL-1
From the text: Metalloproteases mediate tissue damage such as glomerular diseases of the kidney, joint destruction in arthritis, and lung destruction in emphysema, and play a role in tumor metastases. Three examples of metalloproteases include a 92 kD type V gelatinase induced by TNF, IL-1 and PDGF plus bFGF, a 72 kD type IV collagenase that is usually constitutive and induced by TNF or IL-1, and a stromelysin/PUMP-1 induced by TNF and IL-1. The inventive compounds can inhibit TNF or IL-1 induction of the 92 kD type V gelatinase inducable metalloprotease. Moreover, CT 1501R reduced PUMP- 1 activity induced by 100 U/ml of IL-1 to 15% of its control levels. […] Accordingly, the inventive compounds prevent induction of certain metalloproteases induced by IL-1 or TNF and are not involved with constitutively produced proteases (e.g., 72 kD type IV collagenase) involved in normal tissue remodeling.

[4] = test system: PBMC (peripheral blood mononuclear cells); assay: two-way mixed lymphocyte reaction (MLR); assay type: cell-based, human; settings: FIG. 1
From the text: Various in vitro assays can be used to measure effects of the inventive compounds to module immune activity and have antitumor activity using a variety of cellular types. For example, a mixed lymphocyte reaction (MLR) provides a valuable screening tool to determine biological activity of each inventive compound. In the MLR, PBMCs (peripheral blood mononuclear cells) are obtained by drawing whole blood from healthy volunteers in a heparinized container and diluted with an equal volume of hanks balanced salt solution (HBSS). This mixture is layered on a sucrose density gradient, such as a Ficoll-Hypaque® gradient (specific gravity 1.08), and centrifuged at 1000× g for 25 minutes at room temperature or cooler. PBMC are obtained from a band at a plasma-Ficoll interface, separated and washed at least twice in a saline solution, such as HBSS. Contaminating red cells are lysed, such as by ACK lysis for 10 min at 37° C., and the PBMCs are washed twice in HBSS. The pellet of purified PBMCs is resuspended in complete medium, such as RPMI 1640 plus 20% human inactivated serum. Proliferative response of PBMC to allogeneic stimulation is determined in a two-way MLR performed in a 96-well microtiter plate. […] At the conclusion of the incubation tritiated thymidine is added (for example, 1 μCi/well of 40 to 60 Ci/mmole) and proliferation determined by liquid scintillation counting. […]

[5] = metabolized in humans; cited from earlier work
[6] = test system: nu/nu mice; assay: nude mouse hair studies, topical application; assay type: in vivo; settings: second experiment; topical twice daily, 34 days
From the text: This example illustrates nude mouse hair studies involving topical application of CT1501R. Six to eight week old, female, nu/nu mice from Charles River Laboratories were housed at Biosupport Research Support Services (Seattle, Wash.) in autoclaved micro isolator units with hyperchlorinated autoclaved water, irradiated rodent chow and kept under a laminar flow hood. Caging was changed weekly, and water was changed twice weekly. The mice were acclimated for 5 days before beginning each study.
The first topical formulation was prepared by adding CT1501R to a heated hydrophilic ointment (USP) at a 1% concentration, and allowed to solidify.
Nude mice were painted twice daily for 16 days with the first topical formulation of CT1501R on the left flank and another compound in the same base on the right flank with sterile applicators. Mice were handled under the laminar flow hood with applicator wearing face mask and sterile gloves. After 16 days, one mouse was sacrificed by cervical dislocation and skin biopsies were taken of the treated areas of the shoulder/flank and from the non-treated area of the dorsal pelvis (rump). Specimens were placed in 10% buffered formalin solution. Biopsies were sent to a veterinary dermopathologist for histopathology. Six weeks following treatment, a second mouse was euthanatized and biopsied the same as the first. Samples were sent for histopathology.
In a second experiment, topical application of CT1501R was performed along with a commercial topical minoxidil preparation (Rogaine®, Upjohn) that is approved for a hair growth indication. Five to six week old, female, nu/nu mice from Bantin and Kingman Universal were housed at Biosupport Research Support Services (Seattle, Wash.) in autoclaved micro isolator units with hyper chlorinated autoclaved water, irradiated rodent chow and kept under a laminar flow hood. Caging was changed weekly, and water was changed twice weekly. Mice were acclimated for 7 days before beginning study.
CT1501R, and two other compounds were prepared in a topical formulation of 60% ETOH, 10% water and 30% PEG along with vehicle only. Minoxidil was purchased as the commercial preparation Rogaine® from a local pharmacy. Rogaine® is sold in the same formulation base. Mice were identified by unique tail markings specific for each test article. Two mice per group were treated with CT1501R and another compound. One mouse was treated with each of vehicle and minoxidil. The mice were handled under the laminar flow hood with the applicator wearing face mask and sterile gloves. Each mouse was treated twice daily with a separate sterile applicator to avoid contamination of the solutions or the mice. All mice were applied a strip of appropriate test article along the center line of the back from the base of the skull to the base of the tail, approximately 1.5 cm wide. After 34 days all mice were euthanatized by overdose of halothane anesthesia. Skin biopsies were taken from each of the 7 mice over the nape of the neck between the scapulas (approximate size was 1×1.5 cm). All specimens were blotted on gauze to remove blood and fluids, affixed to a cut piece of wooden tongue depressor, and placed specimen side down in separately marked containers with 10% buffered formalin. Specimens were shipped to a veterinary dermatopathologist for qualitative histopathological determinations.

C[C@H](O)CCCCn1c(=O)c2c(ncn2C)n(C)c1=O [CT1501S]
inhibition of LPAAT enzyme activity [1]: only CT1501R significantly inhibited enzyme activity

CC(=O)CCCCn1c(=O)c2c(ncn2C)n(C)c1=O [PTX, 1-(5-oxohexyl)-3,7-dimethylxanthine, reference compound]
inhibition of LPAAT enzyme activity [1]: only CT1501R significantly inhibited enzyme activity | inhibition of smooth muscle cell proliferation [2]: inhibited smooth muscle cell proliferation at the higher doses tested | PUMP-1 activity, % of control levels [3]: 95% | proliferative response of PBMC to allogeneic stimulation [4]: showed dose-response activity | metabolic conversion of PTX [5]: converted almost exclusively to the S enantiomer of MI

Nc1cc(N2CCCCC2)nc(N)[n+]1[O-] [minoxidil, reference compound]
hair follicles, subjective histopathological examination [6]: fair response to treatment
